# Patent US5210027A, “DNA encoding novel antimicrobial polypeptide and methods for obtaining such polypeptide” (INCYTE Pharmaceuticals, Inc., priority 1991, dated 1993)
# Experiments:
# Type in all cases: cell-based
# [1] = system: Escherichia coli K12 (MC4100); assay: Microbicidal assay (colony forming units) against Escherichia coli
# Description: (§1) Microbicidal activity was routinely tested against Escherichia coli K12 (MC4100), Streptococcus faecalis (ATCC Accession No. 29212) and Candida albicans (clinical isolate). Organisms from a single colony on agar plates were inoculated into liquid medium and cultured overnight at 37° C. Aliquots of the overnight culture were inoculated into fresh nutrient broth and grown to mid-exponential phase. Cultures were then diluted into the test medium to the appropriate concentration.
# (§2) Samples from reverse-phase liquid chromatography to be tested for microbicidal activity were dried by vacuum centrifugation in Immulon I microtire plates in the presence of 50 μl 0.1% BSA. Dried samples were resuspended in 0.1% acetic acid and returned to dryness by vacuum centrifugation. Samples were then resuspended in assay buffer and after appropriate dilutions of samples had been made, test organisms were added to the wells and incubation at 37° C. was carried out for 30 to 60 minutes. Killing of all organisms was carried out in 20 mM phosphate pH 6, 0.25M glucose and 0.02% Tween 20 unless otherwise indicated. A volume of the assay mixture corresponding to 200-300 organisms in the control assays were plated onto trypticase soy agar plates (Escherichia coli and Streptococcus faecalis) or spread onto Sabouraud dextrose agar plates (Candida albicans). Colony forming units were determined manually or by automated counting after overnight incubation at 37° C.
# [2] = system: Streptococcus faecalis (ATCC Accession No. 29212); assay: Microbicidal assay (colony forming units) against Streptococcus faecalis
# Description: as §1, §2
# [3] = system: Candida albicans (clinical isolate); assay: Microbicidal assay (colony forming units) against Candida albicans; details: in vitro
# Description: as §1
# as §2, with “A volume of the assay mixture corresponding to 200-300 organisms in the control assays were plated onto trypticase soy agar plates (Escherichia coli and Streptococcus faecalis) or spread onto Sabouraud dextrose agar plates (Candida albicans).” left out
# [4] = in vitro, 20 mM phosphate pH 6, 0.25M glucose, 0.02% Tween 20, 37° C., 30 to 60 minutes, relative to Peak 1 (defensins)
substance,measurement,setting,value
val-cys-ser-cys-arg-leu-val-phe-cys-arg-arg-thr-glu-leu-arg-val-gly-asn-cys-leu-ile-gly-gly-val-ser-phe-thr-tyr-cys-cys-thr-arg-val [Peak 2],effect of detergents Tween 20 and NP40 on microbicidal activity,"[1]; against bacteria, FIG. 7",enhanced
same,microbicidal activity compared with a mixture of previously described defensins,[1]; in vitro,significantly more active
same,"microbicidal activity, fold more active than Peak 1",[1]; [4],15-30 fold
same,effect of detergents Tween 20 and NP40 on microbicidal activity,"[2]; against bacteria, FIG. 7",enhanced
same,microbicidal activity compared with a mixture of previously described defensins,[2]; in vitro,significantly more active
same,"concentration required to reach the indicated levels of killing (50% or 90%), fold less than for Peak 1",[2]; [4],about 100 fold
same,microbicidal activity compared with a mixture of previously described defensins,[3],significantly more active
same,"microbicidal activity, fold more active than Peak 1","[3]; 20 mM phosphate pH 6, 0.25M glucose, 0.02% Tween 20, 37° C., 30 to 60 minutes, relative to Peak 1 (defensins)",about 5 fold
